# Measured values reported in patent US20250213548A1, “PHARMACEUTICAL COMPOSITIONS FOR IMPROVING ORAL BIOAVAILABILITY” (Bristol-Myers Squibb Company, priority 2022, published 2025).
# Legend:
# [1] = rat, in vivo
# Protocol: The study was run as a two-treatment, two-segment, parallel study in anesthetized, fasted, male Sprague Dawley rats (rat weight: ˜300 g) with 4 rats per group.
# For duodenal absorptional testing, the rats were ligated at pylorus (proximal) and the subject formulation was injected directly into duodenum 5 cm past pylorus ligation (about 15 cm from the pylorus) and the distal part of the segment was ligated to contain drug in intestinal segment.
# Samples of the dosed solution from gastric and duodenal segments were extracted at 60 min to measure remaining drug concentrations.
# [2] = Oral absorption of formulated tablets of Compound (II) in cyno monkeys (PK); details: cynomolgus monkey, iv, 0.1 mg/kg
# Protocol: (§1) Four coated tablets were added in each #00 gray opaque hard gelatin capsule for the cyno PK study. Each cyno monkey was dosed with 2 capsules (8 coated tablets).
# (§2) Fasted male cyno monkeys (n=3) were dosed by oral route followed by gavage flush with water to facilitate gastro-intestinal dissolution. Blood samples were taken at predetermined times over 72 hours post-dose to measure comparative pharmacokinetics between the formulations. Due to the long half-life these were conducted in a parallel group design in different sets of cyno monkeys.
# in vivo [3] = details: beagle, dog, iv, 10 mg
# Protocol: (§3) Fasted pentagastrin-pretreated male beagle dogs (n=4) were dosed by oral route followed by gavage flush with water to facilitate gastro-intestinal dissolution. Blood samples were taken at predetermined times over 72 hours post-dose to measure comparative pharmacokinetics between the formulations. Due to the long half-life these were conducted in a parallel group design in different sets of dogs.
# in vivo [4] = details: cynomolgus monkey, iv
# Protocol: as §1, §2
# in vivo [5] = details: beagle, dog, iv, 10 mg; remark: listed apart in the source
# Protocol: as §3
# in vivo [6] = details: dog, iv, 10 mg
# Protocol: Dogs were administered formulations as follows: • 2×50 mg tablets with 10% API (Example 10, 88.6 mg dose after API potency correction) • 10×10-mg tablets with 10% API (Example 11, 88.6 mg dose after API potency correction) • 5×10 mg tablets with 10% API (Example 11, 44.3 mg dose after API potency correction) and 5 placebo tablets with enhancer only. • 10×5 mg tablets with 5% API (44.3 mg dose after API potency correction) • 40×2.5 mg tablets with 10% API (Example X, 100 mg dose after potency correction)
# [7] = cynomolgus monkey, in vivo, iv, 0.1 mg/kg
# Protocol: as §1, §2
# [8] = Oral absorption of prepared formulations of Compound (II) in dogs (Example 10, 70 mg); details: beagle, dog, blood, iv, 10 mg
# Protocol: as §3
smiles,measurement,setting,value
CCCC[C@H]1C(=O)N(C)[C@@H](CCCC)C(=O)N[C@@H](CC(C)C)C(=O)N[C@H](C(=O)NCC(=O)N[C@@H](Cc2cn(CCOCCOCCCOCCCOCCOCCOCCOCCOCCOCCOCCOCCNC(=O)CC[C@H](NC(=O)CCCCCCCCCCCCCCCCC(=O)O)C(=O)O)nn2)C(=O)O)CSCC(=O)N[C@@H](Cc2ccc(O)cc2)C(=O)N(C)[C@@H](C)C(=O)N[C@@H](CC(N)=O)C(=O)N2CCC[C@H]2C(=O)N[C@@H](CN)C(=O)N[C@@H](CC(C)C)C(=O)N2C[C@H](O)C[C@H]2C(=O)N[C@@H](Cc2c[nH]c3ccccc23)C(=O)N[C@@H](CCN)C(=O)N[C@@H](Cc2cn(CC(=O)O)c3ccccc23)C(=O)N1C [Compound (II)],"systemic absorption, intestinal compartment compared to the gastric compartment",[1],good systemic absorption
same,AUC(0-inf),[2]; blood,52 µM·h
same,AUC(0-t),[2]; in vivo,47.6 µM·h
same,Cmax,[2]; in vivo,0.798 µM
same,Tmax,in vivo [3],12 min
same,Tmax,in vivo [4]; 0.1 mg/kg,18 min
same,level at time molar at 24 h,in vivo [4]; 0.1 mpk,0.544 µM
same,AUC(0-inf),in vivo [5],402 µM·h
same,Cmax,in vivo [5],8.55 µM
same,Tmax,in vivo [5],12 min
same,AUC(0-t),in vivo [5]; AUC0-24 h (nM · h) Mean,126 µM·h
same,AUC(0-t),in vivo [5]; AUC0-t (nM · h)* Mean,322 µM·h
same,Cmax,in vivo [6],25500 ng/mL
same,Tmax,in vivo [6],12 min
same,AUC(0-t),in vivo [6]; AUC0-24 h (ng · h/mL) Mean,376 µg·h/mL
same,AUC(0-t),in vivo [6]; AUC0-72 h (ng · h/mL) Mean,833 µg·h/mL
same,BA (%) using AUCInf Mean,[7],100.00%
same,AUC(0-inf),[8],402 µM·h
same,Cmax,[8],8.55 µM
